According to patent US10206937B2, “Boronic acid derivatives and therapeutic uses thereof” (Qpex Biopharma, Inc., priority 2014, dated 2019):

Experiments:
VIM-1 = target: T1, VIM-1 (Pseudomonas aeruginosa, UniProt A0A0F7KYQ8); assay: biochemical; settings: cleavage of nitrocefin (200 uM) by VIM-1 supernatant
T1 construct: made in house; host or cells: ECM6711 strain carrying pUCP24-VIM-1 plasmid; culture supernatant used unpurified

[1] = target: T2, purified class A, C and D enzymes (UniProt Q9F663); format: biochemical; settings: read-out: Ki (KPC-2, NCF); purified KPC-2; nitrocefin reporter substrate
T2 construct: rows headed: Ki (KPC-2, NCF); other: purified KPC-2; nitrocefin reporter substrate

[2] = target: T3, purified class A, C and D enzymes (UniProt Q6XEC0); format: biochemical; settings: read-out: Ki (OXA-48, NCF); purified OXA-48; nitrocefin reporter substrate
T3 construct: rows headed: Ki (OXA-48, NCF); other: purified OXA-48; nitrocefin reporter substrate

[3] = target: purified class A, C and D enzymes (Escherichia coli, UniProt Q9L5C7); format: biochemical; settings: purified CTX-M-14; nitrocefin reporter substrate
Chain of purified class A, C and D enzymes (Escherichia coli, UniProt Q9L5C7) (Q9L5C7 entry or part of it): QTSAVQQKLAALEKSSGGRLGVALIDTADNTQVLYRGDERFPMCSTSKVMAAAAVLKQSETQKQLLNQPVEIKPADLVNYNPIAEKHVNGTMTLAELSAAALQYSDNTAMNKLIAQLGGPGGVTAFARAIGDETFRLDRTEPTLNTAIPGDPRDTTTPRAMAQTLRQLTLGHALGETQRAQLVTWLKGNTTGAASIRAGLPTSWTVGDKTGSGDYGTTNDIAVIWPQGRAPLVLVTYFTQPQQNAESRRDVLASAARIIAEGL

[4] = target: purified class A, C and D enzymes (Enterobacter cloacae, UniProt P05364); format: biochemical; settings: purified P99/AmpC of ECL; nitrocefin reporter substrate
Chain of purified class A, C and D enzymes (Enterobacter cloacae, UniProt P05364) (P05364 21-381): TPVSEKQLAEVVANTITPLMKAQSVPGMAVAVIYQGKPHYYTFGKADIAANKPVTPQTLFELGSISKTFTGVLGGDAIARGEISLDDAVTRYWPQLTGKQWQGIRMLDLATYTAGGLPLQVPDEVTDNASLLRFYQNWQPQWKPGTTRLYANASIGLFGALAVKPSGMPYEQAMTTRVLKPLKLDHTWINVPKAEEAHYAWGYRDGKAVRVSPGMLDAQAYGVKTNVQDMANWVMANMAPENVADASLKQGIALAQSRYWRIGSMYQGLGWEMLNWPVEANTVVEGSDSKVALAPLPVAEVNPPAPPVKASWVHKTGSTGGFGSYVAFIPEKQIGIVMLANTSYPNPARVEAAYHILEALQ

[5] = target: T4, purified class A, C and D enzymes (UniProt P0AD64, L31Q/G234S/E235K, species not given); format: biochemical; settings: read-out: Ki (SHV-12, NCF); purified SHV-12; nitrocefin reporter substrate
T4 construct: Ki (SHV-12, NCF); other: purified SHV-12; nitrocefin reporter substrate
T4 sequence (P0AD64 1-286 L31Q/G234S/E235K): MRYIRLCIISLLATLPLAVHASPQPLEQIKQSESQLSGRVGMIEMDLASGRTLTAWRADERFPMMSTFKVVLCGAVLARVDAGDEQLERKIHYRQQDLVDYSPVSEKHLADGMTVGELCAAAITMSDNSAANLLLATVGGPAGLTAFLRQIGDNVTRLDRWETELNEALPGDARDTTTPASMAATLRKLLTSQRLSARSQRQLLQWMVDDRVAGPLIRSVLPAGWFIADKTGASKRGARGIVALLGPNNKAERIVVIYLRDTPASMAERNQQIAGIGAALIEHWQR

NDM-1 [6] = target: T5, NDM-1 (Klebsiella pneumoniae, UniProt C7C422); assay: Inhibition of purified class B carbapenemase NDM-1 (Ki, imipenem substrate); format: biochemical; settings: NDM-1, substrate imipenem; read-out: Ki NDM-1, Imipenem
T5 sequence (C7C422 29-270, looked up, species assumed): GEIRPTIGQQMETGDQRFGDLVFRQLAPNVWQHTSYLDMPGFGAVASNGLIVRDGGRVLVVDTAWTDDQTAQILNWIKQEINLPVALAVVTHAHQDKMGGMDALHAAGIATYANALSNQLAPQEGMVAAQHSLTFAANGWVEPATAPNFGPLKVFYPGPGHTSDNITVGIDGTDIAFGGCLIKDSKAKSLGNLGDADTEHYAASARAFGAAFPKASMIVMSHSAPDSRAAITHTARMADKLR

NDM-1 [7] = target: T5, NDM-1; assay: biochemical; settings: cleavage of imipenem (100 uM) by NDM-1; read-out: Ki, Imipenem

Structure (SMILES)	IC50 (VIM-1) [nM]	Ki [1] [nM]	Ki [2] [nM]	Ki (CTX-M-14, NCF) [3]	Ki (P99/AmpC of ECL, NCF) [4]	Ki [5] [nM]	Ki (NDM-1 [6]) [nM]	Ki (NDM-1 [7]) [nM]
CSc1ccc2c(c1C(=O)O)OB(O)[C@@H](Sc1nncn1C)C2 [Compound 29, (R)-2-hydroxy-3-(4-methyl-4H-1,2,4-triazol-3-ylthio)-7-(methylthio)-3,4-dihydro-2H-benzo[e][1,2]oxaborinine-8-carboxylic acid]	< 1000	100 to 1000	< 100	X (Less than 0.1 μM)	Y (0.1 μM to 1 μM)	< 100	10 to 100	10 to 100
Cc1ccc2c(c1C(=O)O)OB(O)[C@@H](Sc1nnc(N)s1)C2 [Compound 31, (R)-3-(5-amino-1,3,4-thiadiazol-2-ylthio)-2-hydroxy-7-methyl-3,4-dihydro-2H-benzo[e][1,2]oxaborinine-8-carboxylic acid]	≥ 1000	100 to 1000	< 100	X (Less than 0.1 μM)	Y (0.1 μM to 1 μM)	< 100	> 100	> 100
COc1cc(OC)c(C(=O)O)c2c1C[C@H](Sc1nnc(N)s1)B(O)O2 [Compound 32, (R)-3-(5-amino-1,3,4-thiadiazol-2-ylthio)-2-hydroxy-5,7-dimethoxy-3,4-dihydro-2H-benzo[e][1,2]oxaborinine-8-carboxylic acid]	≥ 1000	< 100	< 100	X (Less than 0.1 μM)	X (Less than 0.1 μM)	< 100	10 to 100	10 to 100
Nc1nnc(S[C@H]2Cc3c(F)cc(F)c(C(=O)O)c3OB2O)s1 [Compound 33, (R)-3-(5-amino-1,3,4-thiadiazol-2-ylthio)-5,7-difluoro-2-hydroxy-3,4-dihydro-2H-benzo[e][1,2]oxaborinine-8-carboxylic acid]	≥ 1000	100 to 1000	< 100	X (Less than 0.1 μM)	X (Less than 0.1 μM)	< 100	10 to 100	> 100
C[S+]([O-])c1ccc2c(c1C(=O)O)OB(O)[C@@H](Sc1nnc(N)s1)C2 (stereo partly drawn) [Compound 34, (3R)-3-(5-amino-1,3,4-thiadiazol-2-ylthio)-2-hydroxy-7-(methylsulfinyl)-3,4-dihydro-2H-benzo[e][1,2]oxaborinine-8-carboxylic acid]	< 1000	100 to 1000	< 100	X (Less than 0.1 μM)	X (Less than 0.1 μM)	< 100	10 to 100	10 to 100
COCc1ccc2c(c1C(=O)O)OB(O)[C@@H](Sc1nnc(N)s1)C2 [Compound 35, (R)-3-(5-amino-1,3,4-thiadiazol-2-ylthio)-2-hydroxy-7-(methoxymethyl)-3,4-dihydro-2H-benzo[e][1,2]oxaborinine-8-carboxylic acid]	< 1000	< 100	< 100	X (Less than 0.1 μM)	Y (0.1 μM to 1 μM)	< 100	10 to 100	10 to 100
Nc1nnc(S[C@H]2Cc3ccc(Cl)c(C(=O)O)c3OB2O)s1 [Compound 36, (R)-3-(5-amino-1,3,4-thiadiazol-2-ylthio)-7-chloro-2-hydroxy-3,4-dihydro-2H-benzo[e][1,2]oxaborinine-8-carboxylic acid]	≥ 1000	< 100	< 100	X (Less than 0.1 μM)	Z (Greater than 1 μM)	< 100	10 to 100	10 to 100
Nc1nnc(S[C@H]2Cc3cc(F)c(F)c(C(=O)O)c3OB2O)s1 [Compound 37, (R)-3-(5-amino-1,3,4-thiadiazol-2-ylthio)-6,7-difluoro-2-hydroxy-3,4-dihydro-2H-benzo[e][1,2]oxaborinine-8-carboxylic acid]	≥ 1000	< 100	< 100	X (Less than 0.1 μM)	Z (Greater than 1 μM)	< 100	10 to 100	10 to 100
Nc1nnc(S[C@H]2Cc3c(F)c(F)c(F)c(C(=O)O)c3OB2O)s1 [Compound 38, (R)-3-(5-amino-1,3,4-thiadiazol-2-ylthio)-5,6,7-trifluoro-2-hydroxy-3,4-dihydro-2H-benzo[e][1,2]oxaborinine-8-carboxylic acid]	≥ 1000	> 1000	< 100	X (Less than 0.1 μM)	Y (0.1 μM to 1 μM)	< 100	> 100	> 100
COc1ccc2c(c1C(=O)O)OB(O)[C@@H](Sc1c[nH]nn1)C2 [Compound 39, (R)-3-(1H-1,2,3-triazol-4-ylthio)-2-hydroxy-7-methoxy-3,4-dihydro-2H-benzo[e][1,2]oxaborinine-8-carboxylic acid]	< 1000	< 100	< 100	X (Less than 0.1 μM)	Y (0.1 μM to 1 μM)	< 100	> 100	> 100
COc1ccc2c(c1C(=O)O)OB(O)[C@@H](Sc1ncn(CCCC(=O)O)n1)C2 [Compound 40, (R)-3-(1-(3-carboxypropyl)-1H-1,2,4-triazol-3-ylthio)-2-hydroxy-7-methoxy-3,4-dihydro-2H-benzo[e][1,2]oxaborinine-8-carboxylic acid]	≥ 1000	< 100	< 100	X (Less than 0.1 μM)	X (Less than 0.1 μM)	< 100	> 100	> 100
COc1ccc2c(c1C(=O)O)OB(O)[C@@H](Sc1nncn1CCCC(=O)O)C2 [Compound 41, (R)-3-(4-(3-carboxypropyl)-4H-1,2,4-triazol-3-ylthio)-2-hydroxy-7-methoxy-3,4-dihydro-2H-benzo[e][1,2]oxaborinine-8-carboxylic acid]	< 1000	< 100	< 100	X (Less than 0.1 μM)	X (Less than 0.1 μM)	< 100	< 10	< 10
COc1c(Cl)cc2c(c1C(=O)O)OB(O)[C@@H](Sc1nnc(N)s1)C2 [Compound 42, (R)-3-(5-amino-1,3,4-thiadiazol-2-ylthio)-6-chloro-2-hydroxy-7-methoxy-3,4-dihydro-2H-benzo[e][1,2]oxaborinine-8-carboxylic acid]	< 1000	100 to 1000	< 100	X (Less than 0.1 μM)	Y (0.1 μM to 1 μM)	< 100	< 10	< 10
COc1ccc2c(c1C(=O)O)OB(O)[C@@H](SCCc1nnc(N)s1)C2 [Compound 43, (R)-3-(2-(5-amino-1,3,4-thiadiazol-2-yl)ethylthio)-2-hydroxy-7-methoxy-3,4-dihydro-2H-benzo[e][1,2]oxaborinine-8-carboxylic acid]	< 1000	< 100	< 100	X (Less than 0.1 μM)	X (Less than 0.1 μM)	< 100	< 10	< 10
Nc1nnc(S[C@H]2Cc3ccc(O)c(C(=O)O)c3OB2O)s1 [Compound 44, (R)-3-(5-amino-1,3,4-thiadiazol-2-ylthio)-2,7-dihydroxy-3,4-dihydro-2H-benzo[e][1,2]oxaborinine-8-carboxylic acid]	< 1000	< 100	< 100	X (Less than 0.1 μM)	X (Less than 0.1 μM)	< 100	< 10	< 10
O=C(O)c1c(F)ccc2c1OB(O)[C@@H](Sc1nccs1)C2 [Compound 45, (R)-7-fluoro-2-hydroxy-3-(thiazol-2-ylthio)-3,4-dihydro-2H-benzo[e][1,2]oxaborinine-8-carboxylic acid]	≥ 1000	100 to 1000	< 100	X (Less than 0.1 μM)	Z (Greater than 1 μM)	< 100	10 to 100	10 to 100
